Data taken from US20020103377A1, “Piperidinyloxy and pyrrolidinyloxy oxazolidinone antibacterials” (priority 1999, published 2002).
≈ marks a conversion by molar mass, not a printed value.

What was measured:
[1] = test system: E. faecium OC3312; assay: MIC by microdilution broth method (NCCLS), E. faecium OC3312; assay type: cell-based; conditions: Enterococcus faecium, OC3312, microdilution broth, cation adjusted Mueller-Hinton broth, 35° C., 16-20 hours; read-out: MIC (μg/mL) E. faecium OC3312
Procedure: (§1) Minimal inhibitory concentration (MIC) has been an indicator of in vitro antibacterial activity widely used in the art. The in vitro antimicrobial activity of the compounds was determined by the microdilution broth method following the test method from the National Committee for Laboratory Standards (NCCLS). This method is described in the NCCLS Document M7-A4, Vol. 17, No.2, “Methods for Dilution Antimicrobial Susceptibility Test for Bacteria that Grow Aerobically-Fourth Edition”, which is incorporated herein by reference.
(§2) In this method two-fold serial dilutions of drug in cation adjusted Mueller-Hinton broth are added to wells in microdilution trays. The test organisms are prepared by adjusting the turbidity of actively growing broth cultures so that the final concentration of test organism after it is added to the wells is approximately 5×10^4 CFU/well.
(§3) Following inoculation of the microdilution trays, the trays are incubated at 35° C. for 16-20 hours and then read. […] The amount of growth in the wells containing the test compound is compared with the amount of growth in the growth-control wells (no test compound) used in each tray. As set forth in Table 1, compounds of the present invention were tested against a variety of Gram positive and Gram negative pathogenic bacteria resulting in a range of activities, from 1 to ≧128 μg/mL depending on the organism tested.

[2] = test system: MRSA OC 2878; assay: MIC by microdilution broth method (NCCLS), MRSA OC 2878; assay type: cell-based, Staphylococcus aureus; conditions: Staphylococcus aureus, MRSA, cation adjusted Mueller-Hinton broth, 35° C., 16-20 hours, read-out: MIC (μg/mL) MRSA OC 2878
Procedure: as §1, §2, §3

[3] = test system: S. aureus; assay: MIC by microdilution broth method (NCCLS), S. aureus Broth; assay type: cell-based; conditions: Staphylococcus aureus, cation adjusted Mueller-Hinton broth, 35° C., 16-20 hours, read-out: MIC (μg/mL) S. aureus Broth
Procedure: as §1, §2, §3

| SMILES | MIC [1] [µg/mL] | MIC [2] [µg/mL] | MIC [3] [µg/mL] | melting point [°C] |
| --- | --- | --- | --- | --- |
| CC(=O)NC[C@H]1CN(c2ccc(OC3CCN(S(C)(=O)=O)CC3)c(F)c2)C(=O)O1 [Compound 6, (S)-N-[[3-[3-Fluoro-4-{N-(methanesulfonyl)piperidinyl-4-oxy}phenyl]-2-oxo-5-oxazolidinyl]methyl]acetamide] | 8 (≈ 18.6 µM) | 4 (≈ 9.31 µM) | 4 (≈ 9.31 µM) | 123 to 125 |
| CC(=O)NC[C@H]1CN(c2ccc(OC3CCN(C(=O)OC(C)(C)C)CC3)nc2)C(=O)O1 [Compound 41, (5S)-3-[6-{N-(t-Butoxycarbonyl)piperidinyl-4-oxy}-pyridin-3-yl]-5-methylacetamide-oxazolidin-2-one] | > 128 | 64 (≈ 147 µM) | 128 (≈ 295 µM) | 99 to 101 |
| CC(=O)NC[C@H]1CN(c2ccc(OC3CCN(S(C)(=O)=O)CC3)nc2)C(=O)O1 [Compound 44, (5S)-3-[6-{N-(Methanesulfonyl)piperidinyl-4-oxy}-pyridin-3-yl]-5-methylacetamide-oxazolidin-2-one] | 128 (≈ 310 µM) | 64 (≈ 155 µM) | 32 (≈ 77.6 µM) | 175 to 176 |
| CC(=O)NC[C@H]1CN(c2ccc(OC3CCN(c4ncccn4)CC3)c(F)c2)C(=O)O1 [Compound 9, (S)-N-[[3-[3-Fluoro-4-{N-(2-pyrimidinyl)piperidinyl-4-oxy}phenyl]-2-oxo-5-oxazolidinyl]methyl]acetamide] | 8 (≈ 18.6 µM) | 4 (≈ 9.31 µM) | 4 (≈ 9.31 µM) | 121 to 123 |
| CC(=O)NC[C@H]1CN(c2ccc(OC3CCN(C(=O)CNS(C)(=O)=O)CC3)c(F)c2)C(=O)O1 [Compound 17, (S)-N-[[3-[3-Fluoro-4-{N-(α-methylsulfonylaminoacetyl)piperidinyl-4-oxy}phenyl]-2-oxo-5-oxazolidinyl]methyl]acetamide] | 16 (≈ 32.9 µM) | 16 (≈ 32.9 µM) | 8 (≈ 16.4 µM) | 78 to 82 |
| CC(=O)NC[C@H]1CN(c2ccc(OC3CCN(C(=O)OC(C)(C)C)CC3)c(F)c2)C(=O)O1 [Compound 1, (S)-N-[[3-[3-Fluoro-4-{N-(t-butoxycarbonyl)piperidinyl-4-oxy}phenyl]-2-oxo-5-oxazolidinyl]methyl]acetamide] | > 32 | 16 (≈ 35.4 µM) | 32 (≈ 70.9 µM) | 179 to 180 |

More lines, now with the values ahead:

| MIC [1] [µg/mL] | MIC [2] [µg/mL] | MIC [3] [µg/mL] | melting point [°C] | SMILES |
| --- | --- | --- | --- | --- |
| 8 (≈ 17.3 µM) | 4 (≈ 8.67 µM) | 8 (≈ 17.3 µM) | 48 to 51 | CC(=O)NC[C@H]1CN(c2ccc(OC3CCN(C(=O)c4cccs4)CC3)c(F)c2)C(=O)O1 [Compound 22, (S)-N-[[3-[3-Fluoro-4-{N-(2-thienylcarbonyl)piperidinyl-4-oxy}phenyl]-2-oxo-5-oxazolidinyl]methyl]acetamide] |
| 32 (≈ 70.1 µM) | 32 (≈ 70.1 µM) | 16 (≈ 35.1 µM) | 49 to 53 | CC(=O)NC[C@H]1CN(c2ccc(OC3CCN(C(=O)c4cccnc4)CC3)c(F)c2)C(=O)O1 [Compound 19, (S)-N-[[3-[3-Fluoro-4-{N-(3-pyridoyl)piperidinyl-4-oxy}phenyl]-2-oxo-5-oxazolidinyl]methyl]acetamide] |
| 16 (≈ 32.1 µM) | 8 (≈ 16 µM) | 16 (≈ 32.1 µM) | 42 to 45 | CC(=O)NC[C@H]1CN(c2ccc(OC3CCN(C(=O)CCCc4cccnc4)CC3)c(F)c2)C(=O)O1 [Compound 26, (S)-N-[[3-[3-Fluoro-4-{N-(4-pyridin-3-yl-butyryl)piperidinyl-4-oxy}phenyl]-2-oxo-5-oxazolidinyl]methyl]acetamide] |
| 32 (≈ 75.7 µM) | 16 (≈ 37.9 µM) | 8 (≈ 18.9 µM) | 129 to 131 | CC(=O)NC[C@H]1CN(c2ccc(OC3CCN(C(=O)N(C)C)CC3)c(F)c2)C(=O)O1 [Compound 24, (S)-N-[[3-[3-Fluoro-4-{N-(dimethylcarbamoyl)piperidinyl-4-oxy}phenyl]-2-oxo-5-oxazolidinyl]methyl]acetamide] |
| 16 (≈ 33.3 µM) | 8 (≈ 16.6 µM) | 8 (≈ 16.6 µM) | 82 to 85 | CC(=O)NC[C@H]1CN(c2ccc(OC3CCN(C(=O)c4cccc(C#N)c4)CC3)c(F)c2)C(=O)O1 [Compound 12, (S)-N-[[3-[3-Fluoro-4-{N-(3-cyanobenzoyl)piperidinyl-4-oxy}phenyl]-2-oxo-5-oxazolidinyl]methyl]acetamide] |
| 16 (≈ 33 µM) | 16 (≈ 33 µM) | 16 (≈ 33 µM) | 45 to 47 | CC(=O)NC[C@H]1CN(c2ccc(OC3CCN(C(=O)CCc4cccnc4)CC3)c(F)c2)C(=O)O1 [Compound 27, (S)-N-[[3-[3-Fluoro-4-{N-(3-pyridin-3-yl-propionyl)piperidinyl-4-oxy}phenyl]-2-oxo-5-oxazolidinyl]methyl]acetamide] |
